Experimental data published in the Kinase Knowledgebase extract (Sharma et al. 2016).

Molecular target: MAPK14 (human) (UniProt Q16539)
Test: Inhibition of MAPK14 Kinase Activity

Sequence of MAPK14 (human) (Q16539 whole entry, looked up): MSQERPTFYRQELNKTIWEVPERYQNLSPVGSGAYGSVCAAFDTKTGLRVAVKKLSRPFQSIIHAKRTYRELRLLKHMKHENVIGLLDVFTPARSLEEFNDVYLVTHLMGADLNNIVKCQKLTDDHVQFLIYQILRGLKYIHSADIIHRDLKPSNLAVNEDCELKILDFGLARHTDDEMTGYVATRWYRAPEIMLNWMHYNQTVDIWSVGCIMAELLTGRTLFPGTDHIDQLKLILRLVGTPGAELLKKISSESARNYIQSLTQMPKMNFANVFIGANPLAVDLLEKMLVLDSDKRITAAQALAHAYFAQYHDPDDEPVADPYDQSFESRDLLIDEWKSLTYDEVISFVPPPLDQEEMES

Row | IC50 | SMILES
1 | < 1000 nM | Cc1cc(Nc2c(C(=O)N3CCC[C@@H]3CO)sc3c2ccc(=O)n3-c2ccc(Cl)cc2)ccc1F
2 | < 1000 nM | Cc1cccc(Nc2c(C(=O)N3CC[C@H](O)C3)sc3c2ccc(=O)n3-c2ccccc2Cl)c1
3 | < 1000 nM | Cc1cc(Nc2c(C(=O)N3CCC[C@@H]3CO)sc3c2ccc(=O)n3-c2ccc(F)cc2)ccc1F
4 | < 1000 nM | O=C(c1sc2c(ccc(=O)n2-c2ccccc2)c1Nc1ccccc1)N1CCC[C@@H]1CO
5 | < 1000 nM | Cc1cc(Nc2c(C(=O)N3CC[C@H](O)C3)sc3c2ccc(=O)n3-c2ccccc2Cl)ccc1F
6 | < 1000 nM | N[C@H]1CCN(C(=O)c2sc3c(ccc(=O)n3-c3ccccc3)c2Nc2ccc(F)cc2F)C1
7 | < 1000 nM | Cc1cccc(Nc2c(C(=O)N3CCC[C@@H]3CO)sc3c2ccc(=O)n3-c2cccc(C)c2)c1
8 | < 1000 nM | O=C(c1sc2c(ccc(=O)n2-c2ccccc2Cl)c1Nc1ccc(F)cc1F)N1CC[C@@H](O)C1
9 | < 1000 nM | Cc1ccc(-n2c(=O)ccc3c(Nc4ccc(F)cc4F)c(C(=O)N4CC[C@@H](O)C4)sc32)cc1
10 | < 1000 nM | Cc1cc(Nc2c(C(=O)N3CC(O)C3)sc3c2ccc(=O)n3-c2ccccc2)ccc1F
11 | < 1000 nM | Cc1cc(Nc2c(C(=O)N3CCC[C@@H]3CO)sc3c2ccc(=O)n3-c2ccccc2)ccc1F
12 | < 1000 nM | O=C(c1sc2c(ccc(=O)n2-c2ccc(F)cc2)c1Nc1ccc(F)cc1F)N1CCC[C@@H]1CO
13 | < 1000 nM | O=C(c1sc2c(ccc(=O)n2-c2ccccc2)c1Nc1ccc(F)cc1F)N1CC[C@H](O)C1
14 | < 1000 nM | N#Cc1cccc(Nc2c(C(=O)N3CCC[C@@H]3CO)sc3c2ccc(=O)n3-c2ccccc2)c1
15 | < 1000 nM | CN(C)[C@@H]1CCN(C(=O)c2sc3c(ccc(=O)n3-c3ccccc3)c2Nc2ccc(F)cc2F)C1
16 | < 1000 nM | Cc1cc(Nc2c(C(=O)N3CC[C@@H](N)C3)sc3c2ccc(=O)n3-c2ccccc2)ccc1F
17 | < 1000 nM | Cc1cc(Nc2c(C(=O)N3CC[C@H](O)C3)sc3c2ccc(=O)n3-c2ccc(F)cc2)ccc1F
18 | < 1000 nM | O=C(c1sc2c(ccc(=O)n2-c2ccccc2)c1Nc1ccccc1Cl)N1CCC[C@H]1CO
19 | < 1000 nM | O=C(c1sc2c(ccc(=O)n2-c2ccccc2)c1Nc1ccc(F)cc1F)N1CC(O)C1
20 | < 1000 nM | NC1CCN(C(=O)c2sc3c(ccc(=O)n3-c3ccccc3)c2Nc2ccc(F)cc2F)C1 (configuration not stated)
21 | < 1000 nM | O=C(c1sc2c(ccc(=O)n2-c2ccccc2)c1Nc1ccc(F)cc1F)N1CCC(O)CC1
22 | < 1000 nM | N#Cc1ccccc1Nc1c(C(=O)N2CC[C@H](O)C2)sc2c1ccc(=O)n2-c1ccccc1
23 | < 1000 nM | Cc1cc(Nc2c(C(=O)N3CC[C@H](O)C3)sc3c2ccc(=O)n3-c2ccccc2)ccc1F
24 | < 1000 nM | Cc1cccc(-n2c(=O)ccc3c(Nc4ccc(F)c(C)c4)c(C(=O)N4CCC[C@@H]4CO)sc32)c1

Row | IC50 | SMILES
25 | < 1000 nM | O=C(c1sc2c(ccc(=O)n2-c2ccccc2)c1Nc1ccc(F)c(Cl)c1)N1CCC[C@H]1CO
26 | < 1000 nM | O=c1ccc2c(Nc3ccc(F)cc3F)c(S(=O)(=O)N3CCC[C@@H]3CO)sc2n1-c1ccccc1
27 | < 1000 nM | O=C(c1sc2c(ccc(=O)n2-c2ccccc2)c1Nc1ccc(F)cc1F)N1C[C@@H](O)[C@@H](O)C1
28 | < 1000 nM | NC[C@@H]1CCCN1C(=O)c1sc2c(ccc(=O)n2-c2ccccc2)c1Nc1ccc(F)cc1F
29 | < 1000 nM | O=C(c1sc2c(ccc(=O)n2-c2ccccc2)c1Nc1ccc(F)cc1F)N1CCC[C@@H]1CO
30 | < 1000 nM | Cc1ccc(-n2c(=O)ccc3c(Nc4ccc(F)c(C)c4)c(C(=O)N4CC[C@@H](O)C4)sc32)cc1
31 | < 1000 nM | Cc1ccc(-n2c(=O)ccc3c(Nc4ccc(F)c(C)c4)c(C(=O)N4CC[C@H](O)C4)sc32)cc1
32 | < 1000 nM | O=C(c1sc2c(ccc(=O)n2-c2ccccc2Cl)c1Nc1ccc(F)cc1F)N1CCC[C@@H]1CO
33 | < 1000 nM | O=C(c1sc2c(ccc(=O)n2-c2ccccc2)c1Nc1ccc(F)cc1F)N1CCCC(O)C1 (configuration not stated)
34 | < 1000 nM | N#Cc1ccccc1Nc1c(C(=O)N2CCC[C@H]2CO)sc2c1ccc(=O)n2-c1ccccc1
35 | < 1000 nM | CC(C)(O)[C@H]1CCCN1C(=O)c1sc2c(ccc(=O)n2-c2ccccc2)c1Nc1ccc(F)cc1F
36 | < 1000 nM | CC(C)(O)[C@@H]1CCCN1C(=O)c1sc2c(ccc(=O)n2-c2ccccc2)c1Nc1ccc(F)cc1F
37 | < 1000 nM | Cc1cccc(-n2c(=O)ccc3c(Nc4ccc(F)c(C)c4)c(C(=O)N4CCC[C@H]4CO)sc32)c1
38 | < 1000 nM | O=C(c1sc2c(ccc(=O)n2-c2ccccc2)c1Nc1ccc(F)cc1F)N1C[C@H](O)[C@@H](O)C1
39 | < 1000 nM | O=C(c1sc2c(ccc(=O)n2-c2ccccc2)c1Nc1ccc(F)c(Cl)c1)N1CCC[C@@H]1CO
40 | < 1000 nM | N[C@@H]1CCN(C(=O)c2sc3c(ccc(=O)n3-c3ccccc3)c2Nc2ccc(F)cc2F)C1
41 | < 1000 nM | O=C(c1sc2c(ccc(=O)n2-c2ccc(F)cc2)c1Nc1ccc(F)cc1F)N1CC[C@@H](O)C1
42 | < 1000 nM | Cc1cc(Nc2c(C(=O)N3CCC[C@@H]3CO)sc3c2ccc(=O)n3-c2ccccc2Cl)ccc1F
43 | < 1000 nM | O=C(c1sc2c(ccc(=O)n2-c2ccccc2)c1Nc1ccccc1Cl)N1CCC[C@@H]1CO
44 | < 1000 nM | COC[C@H]1CCCN1C(=O)c1sc2c(ccc(=O)n2-c2ccccc2)c1Nc1ccccc1
45 | < 1000 nM | O=C(c1sc2c(ccc(=O)n2-c2ccccc2Cl)c1Nc1ccc(F)cc1F)N1CC[C@H](O)C1
46 | < 1000 nM | Cc1ccc(-n2c(=O)ccc3c(Nc4ccc(F)cc4F)c(C(=O)N4CCC[C@@H]4CO)sc32)cc1
47 | < 1000 nM | O=C(c1sc2c(ccc(=O)n2-c2ccccc2)c1Nc1ccc(F)cc1F)N1C[C@@H](O)[C@H](O)C1
48 | < 1000 nM | CN(C)C1CN(C(=O)c2sc3c(ccc(=O)n3-c3ccccc3)c2Nc2ccc(F)cc2F)C1

Row | IC50 | SMILES
49 | < 1000 nM | Cc1cc(Nc2c(C(=O)N3CC[C@@H](N(C)C)C3)sc3c2ccc(=O)n3-c2ccccc2)ccc1F
50 | < 1000 nM | O=C(c1sc2c(ccc(=O)n2CC2CC2)c1Nc1ccccc1)N1CCC[C@@H]1CO
51 | < 1000 nM | O=C(c1sc2c(ccc(=O)n2-c2ccccc2)c1Nc1ccc(F)cc1F)N1CC[C@@H](O)C1
52 | < 1000 nM | NC1CN(C(=O)c2sc3c(ccc(=O)n3-c3ccccc3)c2Nc2ccc(F)cc2F)C1
53 | < 1000 nM | Cc1cc(Nc2c(C(=O)N3CC[C@H](N)C3)sc3c2ccc(=O)n3-c2ccccc2)ccc1F
54 | < 1000 nM | O=C(c1sc2c(ccc(=O)n2-c2ccccc2)c1Nc1cccc(Cl)c1)N1CCC[C@@H]1CO
55 | < 1000 nM | Cc1ccc(-n2c(=O)ccc3c(Nc4cccc(C)c4)c(C(=O)N4CCC[C@@H]4CO)sc32)cc1
56 | < 1000 nM | N#Cc1ccccc1Nc1c(C(=O)N2CC[C@@H](O)C2)sc2c1ccc(=O)n2-c1ccccc1
57 | < 1000 nM | CN(C)[C@H]1CCN(C(=O)c2sc3c(ccc(=O)n3-c3ccccc3)c2Nc2ccc(F)cc2F)C1
58 | < 1000 nM | O=C(c1sc2c(ccc(=O)n2-c2ccccc2)c1Nc1ccccc1)N1CCC[C@H]1CO
59 | < 1000 nM | Cc1cccc(Nc2c(C(=O)N3CCC[C@@H]3CO)sc3c2ccc(=O)n3-c2ccccc2)c1
60 | < 1000 nM | O=C(c1sc2c(ccc(=O)n2-c2ccc(F)cc2)c1Nc1ccc(F)cc1F)N1CC[C@H](O)C1
61 | < 1000 nM | Cc1cc(Nc2c(C(=O)N3CCC[C@H]3CO)sc3c2ccc(=O)n3-c2ccccc2)ccc1F
62 | < 1000 nM | O=C(c1sc2c(ccc(=O)n2-c2ccccc2)c1Nc1ccc(F)cc1F)N1CCC[C@H]1CO
63 | < 1000 nM | CN(C)C1CCN(C(=O)c2sc3c(ccc(=O)n3-c3ccccc3)c2Nc2ccc(F)cc2F)CC1
64 | < 1000 nM | Cc1cc(Nc2c(C(=O)N3CCC[C@H]3CN)sc3c2ccc(=O)n3-c2ccccc2)ccc1F
65 | < 1000 nM | Cc1cc(Nc2c(C(=O)N3CC[C@@H](O)C3)sc3c2ccc(=O)n3-c2ccccc2)ccc1F
66 | < 1000 nM | NC1CCN(C(=O)c2sc3c(ccc(=O)n3-c3ccccc3)c2Nc2ccc(F)cc2F)CC1
67 | < 1000 nM | NC[C@H]1CCCN1C(=O)c1sc2c(ccc(=O)n2-c2ccccc2)c1Nc1ccc(F)cc1F
68 | < 1000 nM | COC[C@@H]1CCCN1C(=O)c1sc2c(ccc(=O)n2-c2ccccc2)c1Nc1ccccc1
69 | < 1000 nM | Cc1ccc(-n2c(=O)ccc3c(Nc4ccc(F)c(C)c4)c(C(=O)N4CCC[C@@H]4CO)sc32)cc1
70 | < 1000 nM | N#Cc1ccccc1Nc1c(C(=O)N2CCC[C@@H]2CO)sc2c1ccc(=O)n2-c1ccccc1
71 | < 1000 nM | Cc1cc(Nc2c(C(=O)N3CC[C@H](N(C)C)C3)sc3c2ccc(=O)n3-c2ccccc2)ccc1F
72 | < 1000 nM | Cc1ccc(-n2c(=O)ccc3c(Nc4ccc(F)cc4F)c(C(=O)N4CC[C@H](O)C4)sc32)cc1
